The text below walks through data of patent publication US8685933B2, “Casein-derived peptides having anxiolytic activity” (Universite de Lorraine, priority 2006, dated 2014).

Common to all, as to format: in vivo, rat
In experiment [1] the test system is Wistar rats. In words: light/dark box test. The settings on record: for time spent in the aversive non-familiar compartment, carrier compared with treated animals: 10 min observation, p<0.05. The source says: The light/dark tests are based on the innate aversion of rodents for intensively illuminated environments and on their spontaneous exploratory behavior in response to slight stress factors such as a new environment and light. The device of the light/dark box allows the study of the exploratory behavior of the rodent towards a non-familiar aversive compartment (intensively illuminated with white light) after habituation in a non-aversive compartment (dark) which then becomes familiar [BOURIN and HASCOËT, 2008 (18)]. Conventional anxiolytics may be detected by using this device.
The light/dark box measures 65×49×35 cm (h×w×l) and is separated into two identical compartments by a plate perforated with three doors of 8×8 cm. The floor is covered with sawdust. Each rat is placed for 24 h in the rear compartment of the box, the doors for communicating with the front compartment being inaccessible. The rear compartment thus becomes the familiar compartment. The animal is fed and hydrated ad libitum. On the day of the test, the rat after treatment is replaced in the familiar compartment and the doors communicating with the front compartment (non-familiar) are made accessible so that the animal may freely explore the environment. The non-familiar compartment is made aversive by white light illumination with an intensity of 1,500 lux. The animals are observed for 10 min and the time spent in each of the compartments is measured.
The animals receive their respective treatment via an intra-peritoneal route, half an hour before opening the communication between the familiar compartment and the non-familiar compartment.

The subject of experiment [2] is Wistar rats. In words: elevated plus maze test. The settings on record: for number of entries in the open arms, carrier compared with treated animals / percentage of entries into the open arms, carrier compared with treated animals / time spent in the open arms, carrier compared with treated animals: p<0.05. The source says: The elevated plus maze test allows the measurement of the density of exploratory behaviour in a new aversive situation [PELLOW et al., 1985 (17)]. The experiment exploits the conflict in rodents, between the fear of open spaces and the desire of exploring a new environment. The rat, placed at the centre of the device is forced to explore its environment. The open arms form an anxiogenic environment, whereas this is not the case of the closed arms. The number of entries in the whole of the arms, that relating to the open arms, the closed arms, the time spent in the open arms, the entry latency in the first open arm, form parameters which reflect the degree of anxiety of the animal.
The elevated plus maze built in wood consists of four branches at 90° from each other. The two open branches (45×10 cm) and the two closed branches (45×10 cm; surrounded with wooden plates over a height of 40 cm) are positioned facing each other. The central square measures 10×10 cm. The open branches are illuminated by white light with an intensity of 500 lux. The elevated plus maze is located at 50 cm from the ground.
The observations take place between 9.0 am and 11.0 am in order to minimize the influence of the circadian rhythm. […] each passage in the elevated plus maze, the animal is placed for 10 min in an open field in order to stimulate its exploratory behavior. It is then placed in the central square of the elevated plus maze and observed for 5 min. The plus maze is washed with 95% (v/v) ethanol between two passages in order to eliminate the odors.
The animals receive their respective treatment via an intra-peritoneal route, half an hour before passing into the open field.

Experiment [3] has as its system Wistar rats. In words: conditioned defensive burial test. The source says:
The conditioned defensive burial test was used for measuring the anxiety level in rats. Developed by PINEL and TREIT (16), this test is based on the innate tendency of rodents, placed in a familiar environment of burying any object perceived as being dangerous by projecting on the latter the litter present at ground level. The expression of the burial behavior by the animal is representative of its anxiety level: more it is anxious, more it buries.
The test takes place in a Plexiglas box (44×28×18 cm), one of the walls of which has an orifice through which an electrode (7×2×0.5 cm) may be inserted. The bottom of the box is covered with a thick layer of sawdust (5 cm). The electrode is connected to a generator delivering a 1 mA intensity current when it is actuated by the experimenter. The whole of the experimentation is carried out in low intensity light.
The experiment consists of habituation phase of 2 days followed by a test phase. During the habituation phase, the rats are placed 20 min daily in the test box, without the electrode, in order to accustom them to the experimental device. During the test phase, each rat is individually placed in the box which contains the electrode. When the animal touches the electrode in the first time, it receives a single shock. From this instant, its behavior is filmed for 5 min and behavioral variables are quantified.
The total burial time and the occurrence latency of the burial behavior after the shock are the most significant variables. A certain number of behaviors oriented towards the electrode and correlated with the anxiety level of the rat (approaches, escapes, contacts) are also counted. Finally, indicators of the activity level of the rat such as the number of upright standing postures are reported.
The animals receive their respective treatments, via an intra-peritoneal route, half an hour before passing into the conditioned defensive burial test.

Where [4] appears, read: diazepam 1 mg/kg intra-peritoneal.
[5] abbreviates: fragment 0.7 mg/kg vs diazepam 1 mg/kg intra-peritoneal.
[6] abbreviates: fragment 91-97 0.7 mg/kg intra-peritoneal.

Where no end group is shown, it is not given here.

Turning to `CN1C(=O)CN=C(c2ccccc2)c2cc(Cl)ccc21` [diazepam, reference compound], the “time spent in the aversive non-familiar compartment, carrier compared with treated animals” value in the experiment on Wistar rats [1] (setting [4]) is recorded as “significantly less”. For the same compound, in the experiment with Wistar rats [2] (setting [4]), the “number of entries in the open arms, carrier compared with treated animals” value is recorded as “significantly less”; the “percentage of entries into the open arms, carrier compared with treated animals” value was “significantly less”; the “time spent in the open arms, carrier compared with treated animals” value is recorded as “significantly less”.

Turning to “YLGYLEQ [fragment 91-97 of αs1 casein, Heptapeptide corresponding to the positions 91-97 of αs1 casein]”, in the experiment on Wistar rats [3] (0.5 mg/kg intra-peritoneal), the “anxiolytic action in conditioned defensive burial” value is given as “has an anxiolytic action in Wistar rats which acts in the same direction as that of diazepam”. Also, the “burial duration of an aversive probe after a single 1 mA shock, NaCl 0.9% control compared with treated animals” value with Wistar rats [3] (0.5 mg/kg intra-peritoneal, half an hour before test, Mann-Whitney: diazepam p<0.02, fragment 91-97 p<0.04, 5 min observation) is given as “significantly larger”. The “burial duration, fragment 91-97 compared with diazepam” value with Wistar rats [3] (both 0.5 mg/kg intra-peritoneal) is recorded as “No significant difference”. Also, the “time spent in the non-familiar compartment, fragment 91-97 compared with diazepam” value with Wistar rats [1] (setting [5]) was “No significant difference”. Besides, the “time spent in the aversive non-familiar compartment, carrier compared with treated animals” value with Wistar rats [1] (setting [6]) was “significantly less”. Besides, the “elevated plus maze open-arm parameters, fragment 91-97 compared with diazepam” value in the experiment with Wistar rats [2] (setting [5]) is reported as “No significant difference”. Moreover, in the experiment on Wistar rats [2] (setting [6]), the “number of entries in the open arms, carrier compared with treated animals” value was “significantly less”; the “percentage of entries into the open arms, carrier compared with treated animals” value was “significantly less”; the “time spent in the open arms, carrier compared with treated animals” value is reported as “significantly less”.
